Laboratory results as given in publication PMC7586344, “Discovery of Novel pERK1/2- or β-Arrestin-Preferring 5-HT1A Receptor-Biased Agonists: Diversified Therapeutic-like versus Side Effect Profile” (Journal of Medicinal Chemistry, 2020).

Experiments:
Assay in all cases: Off-target binding screen
5-HT1D = target: T1, 5-HT1D (Homo sapiens, UniProt P28221); conditions: read-out: % Inhibition of Control Specific Binding; for inhibition at 1 µM: 1000 nM
T1 construct: Eurofins Pharma Discovery Services (contract screen)

H2 = target: T2, H2 (Homo sapiens, UniProt P25021); conditions: 1000 nM, read-out: % Inhibition of Control Specific Binding
T2 construct: Eurofins Pharma Discovery Services (contract assay)

α1B = target: T3, α1B (Homo sapiens, UniProt P35368); conditions: read-out: % Inhibition of Control Specific Binding; for inhibition at 0.01 µM: 10 nM; for inhibition at 0.1 µM: 100 nM; for inhibition at 1 µM: 1000 nM
T3 construct: Eurofins Pharma Discovery Services (contract screen)
T3 sequence (P35368 1-520): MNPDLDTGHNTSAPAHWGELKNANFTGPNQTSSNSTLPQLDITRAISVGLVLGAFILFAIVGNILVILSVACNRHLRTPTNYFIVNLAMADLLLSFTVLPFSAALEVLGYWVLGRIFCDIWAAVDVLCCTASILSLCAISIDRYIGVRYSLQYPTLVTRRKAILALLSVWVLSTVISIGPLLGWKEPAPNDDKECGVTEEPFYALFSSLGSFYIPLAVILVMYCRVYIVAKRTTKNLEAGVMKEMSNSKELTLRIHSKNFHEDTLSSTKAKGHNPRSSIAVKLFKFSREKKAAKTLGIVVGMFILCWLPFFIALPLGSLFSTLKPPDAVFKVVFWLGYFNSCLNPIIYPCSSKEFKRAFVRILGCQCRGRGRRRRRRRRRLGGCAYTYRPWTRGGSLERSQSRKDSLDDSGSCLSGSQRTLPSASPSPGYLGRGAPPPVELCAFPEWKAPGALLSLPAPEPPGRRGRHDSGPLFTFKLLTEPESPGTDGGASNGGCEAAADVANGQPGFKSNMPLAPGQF

GABAA1 (α1,β2,γ2) = target: T4, GABAA1 (α1,β2,γ2) (Homo sapiens, UniProt P14867+P18507+P47870); conditions: 1000 nM, read-out: % Inhibition of Control Specific Binding
T4 construct: Eurofins Pharma Discovery Services (contract assay)

D3 = target: T5, D3 (Homo sapiens, UniProt P35462); conditions: read-out: % Inhibition of Control Specific Binding; for inhibition at 0.01 µM: 10 nM; for inhibition at 0.1 µM: 100 nM; for inhibition at 1 µM: 1000 nM
T5 construct: Eurofins Pharma Discovery Services (contract assay)

α1D = target: T6, α1D (Homo sapiens, UniProt P25100); conditions: read-out: % Inhibition of Control Specific Binding; for inhibition at 0.01 µM: 10 nM; for inhibition at 0.1 µM: 100 nM; for inhibition at 1 µM: 1000 nM
T6 construct: Eurofins Pharma Discovery Services (contract screen)
T6 sequence (P25100 1-572): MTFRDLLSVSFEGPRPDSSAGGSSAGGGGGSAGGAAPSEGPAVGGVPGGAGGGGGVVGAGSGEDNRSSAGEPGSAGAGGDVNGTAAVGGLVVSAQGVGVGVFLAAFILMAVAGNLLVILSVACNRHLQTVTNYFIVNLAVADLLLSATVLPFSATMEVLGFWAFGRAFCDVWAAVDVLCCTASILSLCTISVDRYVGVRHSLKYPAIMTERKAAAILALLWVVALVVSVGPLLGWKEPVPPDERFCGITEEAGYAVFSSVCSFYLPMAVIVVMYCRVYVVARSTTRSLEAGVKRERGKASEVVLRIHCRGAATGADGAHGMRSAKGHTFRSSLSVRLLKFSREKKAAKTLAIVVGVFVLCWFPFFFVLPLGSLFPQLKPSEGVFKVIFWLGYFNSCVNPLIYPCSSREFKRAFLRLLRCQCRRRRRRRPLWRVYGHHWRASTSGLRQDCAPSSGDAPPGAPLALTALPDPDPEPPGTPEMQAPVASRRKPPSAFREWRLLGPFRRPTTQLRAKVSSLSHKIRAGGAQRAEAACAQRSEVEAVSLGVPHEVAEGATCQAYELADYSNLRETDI

DAT = target: T7, DAT (Homo sapiens, UniProt Q01959); conditions: 1000 nM, read-out: % Inhibition of Control Specific Binding
T7 construct: Eurofins Pharma Discovery Services

BZDp (TSPO) = target: T8, BZDp (TSPO) (Homo sapiens, UniProt P30536); conditions: 1000 nM, read-out: % Inhibition of Control Specific Binding
T8 construct: Eurofins Pharma Discovery Services (contract assay)

H4 = target: T9, H4 (Homo sapiens, UniProt Q9H3N8); conditions: 1000 nM, read-out: % Inhibition of Control Specific Binding
T9 construct: Eurofins Pharma Discovery Services (contract assay)

D4.4 = target: T10, D4.4 (Homo sapiens, UniProt P21917); conditions: read-out: % Inhibition of Control Specific Binding; for inhibition at 0.001 µM: 1 nM; for inhibition at 0.01 µM: 10 nM; for inhibition at 0.1 µM: 100 nM; for inhibition at 1 µM: 1000 nM
T10 construct: Eurofins Pharma Discovery Services (contract assay)
T10 sequence (P21917 1-419): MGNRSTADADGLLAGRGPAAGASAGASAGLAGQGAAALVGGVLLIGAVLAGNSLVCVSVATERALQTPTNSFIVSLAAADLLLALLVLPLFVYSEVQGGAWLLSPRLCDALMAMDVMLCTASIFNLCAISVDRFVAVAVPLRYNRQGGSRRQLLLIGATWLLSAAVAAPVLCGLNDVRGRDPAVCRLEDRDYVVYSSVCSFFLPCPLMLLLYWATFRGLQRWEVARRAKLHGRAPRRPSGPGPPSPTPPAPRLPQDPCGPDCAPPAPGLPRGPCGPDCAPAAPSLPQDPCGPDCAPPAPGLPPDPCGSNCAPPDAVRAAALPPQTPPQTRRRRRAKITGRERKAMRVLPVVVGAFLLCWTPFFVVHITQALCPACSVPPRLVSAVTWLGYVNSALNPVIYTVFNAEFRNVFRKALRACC

β3 = target: T11, β3 (Homo sapiens, UniProt P13945); conditions: 1000 nM, read-out: % Inhibition of Control Specific Binding
T11 construct: Eurofins Pharma Discovery Services (contract assay)

α2C = target: T12, α2C (Homo sapiens, UniProt P18825); conditions: read-out: % Inhibition of Control Specific Binding; for inhibition at 0.001 µM: 1 nM; for inhibition at 0.01 µM: 10 nM; for inhibition at 0.1 µM: 100 nM; for inhibition at 1 µM: 1000 nM
T12 construct: Eurofins Pharma Discovery Services (contract screen)
T12 sequence (P18825 1-462): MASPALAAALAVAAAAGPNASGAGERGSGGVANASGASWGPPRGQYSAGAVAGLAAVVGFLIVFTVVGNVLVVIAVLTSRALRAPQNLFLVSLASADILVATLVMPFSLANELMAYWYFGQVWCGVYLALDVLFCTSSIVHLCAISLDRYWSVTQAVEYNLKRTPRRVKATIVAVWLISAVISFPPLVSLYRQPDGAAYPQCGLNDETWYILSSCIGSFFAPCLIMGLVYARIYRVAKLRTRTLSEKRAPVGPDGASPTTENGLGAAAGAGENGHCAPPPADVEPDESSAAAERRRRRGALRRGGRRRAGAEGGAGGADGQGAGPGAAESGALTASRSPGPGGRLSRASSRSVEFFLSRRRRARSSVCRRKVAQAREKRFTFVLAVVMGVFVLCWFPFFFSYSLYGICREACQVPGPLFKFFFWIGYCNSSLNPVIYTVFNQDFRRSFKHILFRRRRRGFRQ

T2 sequence (P25021 whole entry): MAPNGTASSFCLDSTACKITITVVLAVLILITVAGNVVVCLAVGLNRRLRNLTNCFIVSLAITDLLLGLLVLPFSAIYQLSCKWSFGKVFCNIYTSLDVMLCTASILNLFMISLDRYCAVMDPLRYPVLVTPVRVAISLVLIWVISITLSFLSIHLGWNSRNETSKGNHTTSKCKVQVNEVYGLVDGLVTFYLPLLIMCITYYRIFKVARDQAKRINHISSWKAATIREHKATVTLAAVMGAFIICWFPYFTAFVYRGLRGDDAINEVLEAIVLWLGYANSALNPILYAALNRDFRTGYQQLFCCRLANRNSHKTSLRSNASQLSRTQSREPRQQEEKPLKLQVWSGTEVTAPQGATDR
T11 sequence (P13945 whole entry): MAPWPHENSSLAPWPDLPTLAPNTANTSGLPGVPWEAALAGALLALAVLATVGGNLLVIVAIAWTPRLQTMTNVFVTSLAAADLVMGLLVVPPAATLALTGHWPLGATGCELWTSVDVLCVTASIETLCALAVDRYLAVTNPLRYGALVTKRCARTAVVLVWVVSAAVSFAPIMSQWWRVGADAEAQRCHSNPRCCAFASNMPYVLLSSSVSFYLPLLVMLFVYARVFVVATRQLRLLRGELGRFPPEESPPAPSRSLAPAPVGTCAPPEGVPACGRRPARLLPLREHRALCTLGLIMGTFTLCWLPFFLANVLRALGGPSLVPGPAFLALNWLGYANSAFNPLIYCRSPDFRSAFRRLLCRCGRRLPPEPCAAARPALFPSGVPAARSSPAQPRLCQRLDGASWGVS
T7 sequence (Q01959 whole entry, species assumed): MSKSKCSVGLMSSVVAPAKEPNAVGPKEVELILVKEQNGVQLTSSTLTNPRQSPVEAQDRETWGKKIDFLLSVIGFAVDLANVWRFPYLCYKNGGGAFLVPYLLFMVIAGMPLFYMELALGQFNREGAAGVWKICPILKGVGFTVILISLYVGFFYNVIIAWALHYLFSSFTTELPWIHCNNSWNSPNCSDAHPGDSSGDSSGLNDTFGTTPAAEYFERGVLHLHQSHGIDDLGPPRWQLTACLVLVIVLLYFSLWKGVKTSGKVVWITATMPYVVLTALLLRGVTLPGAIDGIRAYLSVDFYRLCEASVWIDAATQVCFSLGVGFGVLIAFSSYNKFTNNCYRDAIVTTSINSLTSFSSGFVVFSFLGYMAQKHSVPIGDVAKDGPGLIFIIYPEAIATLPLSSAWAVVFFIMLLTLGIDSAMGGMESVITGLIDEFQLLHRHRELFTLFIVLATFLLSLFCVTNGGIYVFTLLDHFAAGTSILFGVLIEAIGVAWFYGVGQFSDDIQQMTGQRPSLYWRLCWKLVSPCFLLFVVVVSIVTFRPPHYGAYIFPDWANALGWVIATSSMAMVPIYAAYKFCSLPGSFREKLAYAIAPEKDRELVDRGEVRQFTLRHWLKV
T9 sequence (Q9H3N8 whole entry): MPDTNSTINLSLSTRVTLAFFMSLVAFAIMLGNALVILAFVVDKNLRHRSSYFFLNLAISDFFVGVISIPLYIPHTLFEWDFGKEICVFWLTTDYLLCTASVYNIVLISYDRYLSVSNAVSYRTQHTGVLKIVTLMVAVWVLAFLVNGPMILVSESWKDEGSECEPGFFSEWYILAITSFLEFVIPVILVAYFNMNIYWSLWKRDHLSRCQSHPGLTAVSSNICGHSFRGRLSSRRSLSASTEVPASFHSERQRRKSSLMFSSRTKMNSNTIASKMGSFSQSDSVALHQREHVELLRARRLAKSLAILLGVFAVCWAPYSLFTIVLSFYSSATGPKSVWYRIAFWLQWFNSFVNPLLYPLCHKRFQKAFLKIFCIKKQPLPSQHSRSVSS
T4 sequence (P14867 28-456): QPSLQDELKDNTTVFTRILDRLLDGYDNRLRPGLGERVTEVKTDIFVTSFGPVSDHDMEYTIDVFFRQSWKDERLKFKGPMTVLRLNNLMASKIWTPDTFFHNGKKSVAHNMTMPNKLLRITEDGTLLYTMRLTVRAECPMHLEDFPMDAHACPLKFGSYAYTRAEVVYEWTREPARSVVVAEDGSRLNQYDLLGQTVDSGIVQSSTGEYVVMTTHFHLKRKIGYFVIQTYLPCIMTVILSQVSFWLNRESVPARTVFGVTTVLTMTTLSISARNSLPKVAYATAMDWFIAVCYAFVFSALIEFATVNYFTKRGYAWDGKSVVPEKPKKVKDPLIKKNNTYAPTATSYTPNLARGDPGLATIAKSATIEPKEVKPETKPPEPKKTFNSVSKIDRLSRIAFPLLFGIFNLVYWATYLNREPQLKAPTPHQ
T4 sequence (P47870 25-512 limits assumed): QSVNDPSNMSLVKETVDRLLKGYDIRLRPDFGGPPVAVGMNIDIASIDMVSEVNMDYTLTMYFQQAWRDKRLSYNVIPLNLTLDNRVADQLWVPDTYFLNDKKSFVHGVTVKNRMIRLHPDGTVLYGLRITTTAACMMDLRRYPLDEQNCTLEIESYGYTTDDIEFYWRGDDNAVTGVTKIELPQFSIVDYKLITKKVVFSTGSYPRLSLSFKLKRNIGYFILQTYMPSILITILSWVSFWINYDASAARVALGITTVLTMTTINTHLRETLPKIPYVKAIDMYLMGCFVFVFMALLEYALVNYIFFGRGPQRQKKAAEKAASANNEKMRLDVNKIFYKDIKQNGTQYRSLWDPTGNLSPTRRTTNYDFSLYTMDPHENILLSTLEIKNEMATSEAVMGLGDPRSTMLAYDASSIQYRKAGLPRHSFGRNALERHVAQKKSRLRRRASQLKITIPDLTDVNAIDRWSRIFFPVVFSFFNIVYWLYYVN
T4 sequence (P18507 40-475): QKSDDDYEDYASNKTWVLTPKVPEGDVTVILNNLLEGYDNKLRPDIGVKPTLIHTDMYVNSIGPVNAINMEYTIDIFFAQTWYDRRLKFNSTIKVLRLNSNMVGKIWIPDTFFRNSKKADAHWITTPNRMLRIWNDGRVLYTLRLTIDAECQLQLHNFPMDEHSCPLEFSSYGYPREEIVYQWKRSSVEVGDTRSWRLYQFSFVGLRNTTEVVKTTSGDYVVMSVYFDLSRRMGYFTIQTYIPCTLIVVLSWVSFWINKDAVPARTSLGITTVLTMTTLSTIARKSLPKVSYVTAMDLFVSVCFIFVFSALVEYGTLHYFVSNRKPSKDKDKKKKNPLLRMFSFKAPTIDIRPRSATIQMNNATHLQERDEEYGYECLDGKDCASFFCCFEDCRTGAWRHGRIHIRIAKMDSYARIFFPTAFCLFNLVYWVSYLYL
T1 sequence (P28221 whole entry, species assumed): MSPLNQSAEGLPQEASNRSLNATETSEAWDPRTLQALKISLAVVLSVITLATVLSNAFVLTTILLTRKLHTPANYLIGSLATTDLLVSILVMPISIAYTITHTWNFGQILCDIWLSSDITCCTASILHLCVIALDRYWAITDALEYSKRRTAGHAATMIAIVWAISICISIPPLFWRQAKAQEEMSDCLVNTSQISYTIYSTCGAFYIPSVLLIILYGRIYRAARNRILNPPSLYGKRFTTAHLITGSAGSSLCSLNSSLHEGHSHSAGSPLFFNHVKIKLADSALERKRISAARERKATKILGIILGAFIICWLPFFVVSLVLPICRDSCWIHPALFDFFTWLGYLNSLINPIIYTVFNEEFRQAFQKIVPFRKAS
T5 sequence (P35462 whole entry): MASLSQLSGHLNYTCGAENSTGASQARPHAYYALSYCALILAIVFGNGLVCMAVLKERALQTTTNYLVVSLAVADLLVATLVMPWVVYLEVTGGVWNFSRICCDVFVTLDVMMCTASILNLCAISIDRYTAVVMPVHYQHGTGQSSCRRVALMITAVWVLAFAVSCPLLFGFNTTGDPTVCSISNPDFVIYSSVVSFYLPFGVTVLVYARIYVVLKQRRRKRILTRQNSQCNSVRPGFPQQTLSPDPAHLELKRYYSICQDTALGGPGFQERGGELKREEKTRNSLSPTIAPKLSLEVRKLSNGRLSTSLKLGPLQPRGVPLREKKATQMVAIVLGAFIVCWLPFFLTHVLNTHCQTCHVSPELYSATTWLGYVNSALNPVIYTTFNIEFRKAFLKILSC
T8 sequence (P30536 whole entry): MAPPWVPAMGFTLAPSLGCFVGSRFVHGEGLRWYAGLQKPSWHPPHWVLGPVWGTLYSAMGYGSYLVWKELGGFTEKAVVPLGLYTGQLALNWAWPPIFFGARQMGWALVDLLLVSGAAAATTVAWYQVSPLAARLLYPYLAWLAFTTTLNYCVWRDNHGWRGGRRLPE

| Compound | inhibition at 1 µM (H2) | inhibition at 0.01 µM (α1B) | inhibition at 0.1 µM (α1B) | inhibition at 1 µM (α1B) | inhibition at 1 µM (GABAA1 (α1,β2,γ2)) | inhibition at 0.01 µM (D3) | inhibition at 0.1 µM (D3) | inhibition at 1 µM (D3) | inhibition at 0.01 µM (α1D) | inhibition at 0.1 µM (α1D) | inhibition at 1 µM (DAT) | inhibition at 1 µM (BZDp (TSPO)) | inhibition at 1 µM (H4) | inhibition at 0.001 µM (D4.4) | inhibition at 0.01 µM (D4.4) | inhibition at 0.1 µM (D4.4) | inhibition at 1 µM (D4.4) | inhibition at 1 µM (β3) | inhibition at 0.001 µM (α2C) | inhibition at 0.01 µM (α2C) | further results |
| --- | --- | --- | --- | --- | --- | --- | --- | --- | --- | --- | --- | --- | --- | --- | --- | --- | --- | --- | --- | --- | --- |
| O=C(c1ccc(F)c(Cl)c1)N1CCC(F)(CNCCOc2cccc3[nH]ccc23)CC1 [Compound 56, (4-(((2-((1H-Indol-4-yl)oxy)ethyl)amino)methyl)-4-fluoropiperidin-1-yl)(3-chloro-4-fluorophenyl)methanone] | -33% | -6% | 11% | 69% | -13% | 36% | 85% | 99% | 23% | 63% | 37% | -6% | 5% | 9% | 48% | 89% | 98% | 1% | 3% | 18% | inhibition at 0.001 µM (5-HT1D; 1 nM): -14%; inhibition at 0.01 µM (5-HT1D; 10 nM): 27%; inhibition at 0.1 µM (5-HT1D; 100 nM): 80%; inhibition at 0.001 µM (D3; 1 nM): 41%; inhibition at 0.001 µM (α1D; 1 nM): -7%; inhibition at 0.1 µM (α2C): 74% |
| O=C(c1ccc(F)c(Cl)c1)N1CCC(F)(CNCCOc2ccccc2)CC1 [Compound 3] | -15% | – | – | 32% | -18% | 12% | 26% | 69% | 19% | 40% | -2% | -10% | -11% | -1% | 8% | 59% | 92% | -2% | 1% | 18% | inhibition at 1 µM (5-HT1D): 48%; inhibition at 1 µM (α1D): 84%; inhibition at 0.1 µM (α2C): 66%; inhibition at 1 µM (α2C): 92% |
| CNc1ccccc1OCCNCC1(F)CCN(C(=O)c2ccc(F)c(Cl)c2)CC1 [Compound 44, (3-Chloro-4-fluorophenyl)(4-fluoro-4-(((2-(2-(methylamino)phenoxy)ethyl)amino)methyl)piperidin-1-yl)methanone] | -28% | -3% | -6% | – | -4% | – | – | 42% | -1% | 32% | 0% | -10% | -11% | – | – | 51% | 90% | -7% | – | – | inhibition at 1 µM (5-HT1D): 38%; inhibition at 1 µM (α1D): 80%; inhibition at 1 µM (α2C): 32% |
